Reference: patent publication EP0593348A1, “Thiazolidine dione derivatives, process for their preparation and pharmaceutical compositions containing them” (ADIR ET COMPAGNIE, priority 1992, dated 1994)
Like-named read-outs stand apart in the source and are kept apart here.

Tests used:
souris ob/ob = experiment: Hypoglycaemic activity in a non-insulin-dependent diabetes (NIDDM) model, ob/ob mice; format: in vivo; details: oral, 4 days, base 100, reached at the dose given
Text: A/ Etude de l'activité des composés de l'invention sur un modèle de diabète non insulino-dépendant (NIDDM).
Les animaux (souris ob/ob) sont traités chaque jour, pendant 4 jours, en administrant par voie orale, les composés de l'invention en suspension dans une solution à 20 % de gomme du Sénégal. Avant et après traitement, soit à J0 et à J5, le sang est prélevé par ponction du sinus orbital et la glycémie est déterminée. Le tableau 1 présente les doses des différents produits à administrer pour obtenir le même effet hypoglycémiant (base 100).

rats Zucker Fa/Fa mâles = experiment: Model of reduced glucose tolerance with hyperinsulinaemia and hyperlipaemia, male Zucker Fa/Fa rats; format: in vivo; details: 5 mg/kg/jour oral for 10 days; for Glycémie (%) / Plasma insuline (%): blood on day 11, control = 100; for Poids ΔP% J₁₁-J₁: control = +100; for AGL (%): plasma free fatty acids; for AGL (%) / TG (%): control = 100; for TG (%): plasma triglycerides
Protocol: B/ Etude de l'activité des composés de l'invention sur un modèle de tolérance au glucose diminuée associée à une hyperinsulinémie et une hyperlipémie .
Les animaux (rats Zucker Fa/Fa mâles) sont traités, chaque jour, pendant 10 jours, en administrant, par voie orale, les composés de l'invention à la dose de 5 mg/kg/jour en suspension dans une solution à 20 % de gomme du Sénégal. Le 11ème jour, les animaux sont sacrifiés et le sang recueilli afin de déterminer la glycémie, les triglycérides plasmatiques et l'insuline immuno-réactive. D'autre part, les animaux sont pesés avant et après traitement.
Dans ces conditions, les composés de l'invention n'ont pas d'influence sur le taux de glucose circulant mais diminuent le taux de triglycérides (TG) et d'acides gras libres plasmatiques (AGL) ainsi que celui de l'insuline immuno-réactive. Cette activité est égale ou supérieure à celle d'autres dérivés de thiazolidinedione de référence.

rats SDCD mâles = details: rat, in vivo
Text: Administrés per os à des rats SDCD mâles pesant 175 g les produits sont sans effet sur les éléments figurés du sang et le volume plasmatique, à la différence de la pioglitazone : […]

Structure (SMILES): O=C1NC(=O)C(Cc2ccc(CCNC(=O)c3ccccc3O)cc2)S1 (racemic) [Exemple 3, (R,S) 5-{4-[2-(salicyloyamino) éthyl]benzyl} thiazolidine-2,4-dione]
- Pouvoir hypoglycémiant (souris ob/ob): 100

Structure (SMILES): O=C(CC(c1ccccc1)c1ccccc1)NCCc1ccc(CC2SC(=O)NC2=O)cc1 (racemic) [Exemple 6, (R,S) 5-{4-[2-(3,3-diphénylpropionamido)éthyl]benzyl}thiazolidine-2,4-dione]
- Pouvoir hypoglycémiant (souris ob/ob): 100

Structure (SMILES): COc1ccc(OC)c(C(=O)NCCc2ccc(CC3SC(=O)NC3=O)cc2)c1 (racemic) [Exemple 7, (R,S) 5-{4-[2-(2,5-diméthoxybenzamido)éthyl]benzyl}thiazolidine-2,4-dione]
- Pouvoir hypoglycémiant (souris ob/ob): 100

Structure (SMILES): O=C1NC(=O)C(Cc2ccc(CCNC(=O)c3ccco3)cc2)S1 (racemic) [Exemple 14, (R,S) 5-{4-[2-(fur-2-ylcarbonylamino)éthyl]benzyl}thiazolidine-2,4-dione]
- Pouvoir hypoglycémiant (souris ob/ob): 100

Structure (SMILES): Cc1cc(C(=O)NCCc2ccc(CC3SC(=O)NC3=O)cc2)no1 (racemic) [Exemple 15, (R,S) 5-{4-[2-(5-méthyl 1,2-oxazol-3-ylcarbonylamino)éthyl]benzyl} thiazolidine-2,4-dione]
- Pouvoir hypoglycémiant (souris ob/ob): 100

Structure (SMILES): O=C1NC(=O)C(Cc2ccc(CCNC(=O)c3cnccn3)cc2)S1 (racemic) [Exemple 25, (R,S) 5-{4-[2-(pyrazin-2-ylcarbonylamino)éthyl]benzyl}thiazolidine-2,4-dione]
- Pouvoir hypoglycémiant (souris ob/ob): 100

Structure (SMILES): CN(C)c1ccccc1C(=O)NCCc1ccc(CC2SC(=O)NC2=O)cc1 (racemic) [Exemple 28, (R,S) 5-{4-[2-(2-diméthylaminobenzamido)éthyl]benzyl}thiazolidine-2,4-dione]
- Glycémie (%) (rats Zucker Fa/Fa mâles): 99%
- Plasma insuline (%) (rats Zucker Fa/Fa mâles): 75%
- Poids ΔP% J₁₁-J₁ (rats Zucker Fa/Fa mâles): +103%
- AGL (%) (rats Zucker Fa/Fa mâles): 110%
- TG (%) (rats Zucker Fa/Fa mâles): 89%
- Pouvoir hypoglycémiant (souris ob/ob): 100

Structure (SMILES): COc1ccc(Cl)cc1C(=O)NCCCc1ccc(CC2SC(=O)NC2=O)cc1 (racemic) [Exemple 33, (R,S) 5-{4-[3-(2-méthoxy-5-chlorobenzamido)propyl]benzyl}thiazolidine-2,4-dione]
- Pouvoir hypoglycémiant (souris ob/ob): 100

Structure (SMILES): O=C1NC(=O)C(Cc2ccc(CCNC(=O)c3cccs3)cc2)S1 (racemic) [Exemple 35, (R,S) 5-{4-[2-(thién-2-ylcarbonylamino)éthyl]benzyl}thiazolidine-2,4-dione]
- Pouvoir hypoglycémiant (souris ob/ob): 100

Structure (SMILES): COc1ccc(Cl)cc1C(=O)NCc1ccc(CC2SC(=O)NC2=O)cc1 (racemic) [Exemple 36, (R,S) 5-{4-[(5-chloro-2-méthoxybenzamido)méthyl]benzyl}thiazolidine-2,4-dione]
- Pouvoir hypoglycémiant (souris ob/ob): 100

Structure (SMILES): CC(C)(C)c1cc(OCCc2ccc(CC3SC(=O)NC3=O)cc2)cc(C(C)(C)C)c1O (racemic) [Exemple 41, (R,S) 5-{4-[2-(3,5-di-tert-butyl-4-hydroxyphénoxy)éthyl]benzyl} thiazolidine-2,4-dione]
- Pouvoir hypoglycémiant (souris ob/ob): 100

Structure (SMILES): COc1ccc(C=CC(=O)NCCc2ccc(CC3SC(=O)NC3=O)cc2)cc1OC (racemic) [Exemple 43, (R,S) 5-{4-[2-(3-(3,4-diméthoxyphényl)prop-2-énoylamino)éthyl]benzyl} thiazolidine-2,4-dione]
- Pouvoir hypoglycémiant (souris ob/ob): 100

Structure (SMILES): O=C(C=Cc1ccc2c(c1)OCO2)NCCc1ccc(CC2SC(=O)NC2=O)cc1 (racemic) [Exemple 44, (R,S) 5-{4-[2-(3-(3,4-méthylènedioxyphényl)prop-2-énoylamino)éthyl]benzyl} thiazolidine-2,4-dione]
- Pouvoir hypoglycémiant (souris ob/ob): 100

Structure (SMILES): O=C1NC(=O)C(Cc2ccc(CCNC(=O)C3c4ccccc4Oc4ccccc43)cc2)S1 (racemic) [Exemple 45, (R,S) 5-{4-[2-(xanthén-9-ylcarbonylamino)éthyl]benzyl}thiazolidine-2,4-dione]
- Pouvoir hypoglycémiant (souris ob/ob): 100

Structure (SMILES): Cc1cccc(C)c1C(C(=O)NCCc1ccc(CC2SC(=O)NC2=O)cc1)c1c(C)cccc1C (racemic) [Exemple 46, (R,S) 5-{4-[2-(2,2-bis(2,6-diméthylphényl)acétylamino)éthyl]benzyl} thiazolidine-2,4-dione]
- Pouvoir hypoglycémiant (souris ob/ob): 100

Structure (SMILES): CC1(COc2ccc(CC3SC(=O)NC3=O)cc2)CCCCC1 (stereo not drawn) [Ciglitazone, reference compound]
- Pouvoir hypoglycémiant (souris ob/ob): 100

Structure (SMILES): COc1ccc(Cl)cc1C(=O)NCCc1ccc(CC2SC(=O)NC2=O)cc1 (stereo not drawn) [Exemple 1, 5-{4-[2-(2-méthoxy 5-chlorobenzamido) éthyl]benzyl} thiazolidine 2,4-dione]
- Glycémie (%) (rats Zucker Fa/Fa mâles): 113%
- Plasma insuline (%) (rats Zucker Fa/Fa mâles): 71%
- Poids ΔP% J₁₁-J₁ (rats Zucker Fa/Fa mâles): +112%
- AGL (%) (rats Zucker Fa/Fa mâles): 83%
- TG (%) (rats Zucker Fa/Fa mâles): 94%
- Pouvoir hypoglycémiant (souris ob/ob): 100
- Globules blancs (rats SDCD mâles; 100 mg/kg): - 6%
- Globules rouges (rats SDCD mâles; 100 mg/kg): - 2%
- Hématocrite (rats SDCD mâles; 100 mg/kg): + 11%
- Hémoglobine (rats SDCD mâles; 100 mg/kg): + 11%
- Globules blancs (rats SDCD mâles; 250 mg/kg): - 4%
- Globules rouges (rats SDCD mâles; 250 mg/kg): - 11%
- Hématocrite (rats SDCD mâles; 250 mg/kg): + 4%
- Hémoglobine (rats SDCD mâles; 250 mg/kg): + 4%

Structure (SMILES): O=C1NC(=O)C(Cc2ccc(CCN3C(=O)c4ccccc4C3=O)cc2)S1 (stereo not drawn) [Exemple 4, 5-{4-[2-(phtalimido)éthyl]benzyl}thiazolidine-2,4-dione]
- Glycémie (%) (rats Zucker Fa/Fa mâles): 108%
- Plasma insuline (%) (rats Zucker Fa/Fa mâles): 72%
- Poids ΔP% J₁₁-J₁ (rats Zucker Fa/Fa mâles): +132%
- AGL (%) (rats Zucker Fa/Fa mâles): 108%
- TG (%) (rats Zucker Fa/Fa mâles): 78%
- Pouvoir hypoglycémiant (souris ob/ob): 100

Structure (SMILES): COc1ccc(Cl)cc1C(=O)NC[C@@H](O)c1ccc(C[C@H]2SC(=O)NC2=O)cc1 [Exemple 40, (R,S) 5-{4-[1-hydroxy-2-(5-chloro-2-méthoxybenzamido)éthyl]benzyl} thiazolidine-2,4-dione]
- Pouvoir hypoglycémiant (souris ob/ob): 100

Structure (SMILES): CCc1ccc(CCOc2ccc(CC3SC(=O)NC3=O)cc2)nc1 (stereo not drawn) [Pioglitazone, reference compound]
- Glycémie (%) (rats Zucker Fa/Fa mâles): 115%
- Plasma insuline (%) (rats Zucker Fa/Fa mâles): 49%
- Poids ΔP% J₁₁-J₁ (rats Zucker Fa/Fa mâles): +320%
- AGL (%) (rats Zucker Fa/Fa mâles): 57%
- TG (%) (rats Zucker Fa/Fa mâles): 35%
- Globules blancs (rats SDCD mâles; 100 mg/kg): - 46%
- Globules rouges (rats SDCD mâles; 100 mg/kg): - 37%
- Hématocrite (rats SDCD mâles; 100 mg/kg): - 26%
- Hémoglobine (rats SDCD mâles; 100 mg/kg): - 29%
